IC50 data for 13 compounds are collected here from patent US11976083B2, “Inhibitors of peptidylarginine deiminases” (Gilead Sciences, Inc., priority 2020, dated 2024).

In the test the target is T1, human PAD4 (Homo sapiens, UniProt Q9UM07).
T1 construct: human PAD4 (NM_012387), A2-P663, was PCR amplified; His-SUMO (N, cleaved yes); made in house; host or cells: E. coli BL21(DE3)
Nature of the test: In vitro PAD4 BAEE biochemical assay. The conditions noted are these: BAEE substrate 3 mM, 5 nM PAD4, 2 mM calcium chloride; geometric mean of multiple experiments. The essentials: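 Ammonia produced by BAEE deimination (3 mM substrate, 2 h, 25 °C) was read as fluorescent isoindole after o-phthalaldehyde/DTT derivatization, ex 405 nm/em 535 nm. Human PAD4 at 5 nM final, 2 mM calcium, pH 7.6 MOPS; compound preincubated 30 min. IC50s, normalized to BB-Cl-Amidine and DMSO controls, were geometric-mean averaged.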

T1 sequence (Q9UM07 2-663): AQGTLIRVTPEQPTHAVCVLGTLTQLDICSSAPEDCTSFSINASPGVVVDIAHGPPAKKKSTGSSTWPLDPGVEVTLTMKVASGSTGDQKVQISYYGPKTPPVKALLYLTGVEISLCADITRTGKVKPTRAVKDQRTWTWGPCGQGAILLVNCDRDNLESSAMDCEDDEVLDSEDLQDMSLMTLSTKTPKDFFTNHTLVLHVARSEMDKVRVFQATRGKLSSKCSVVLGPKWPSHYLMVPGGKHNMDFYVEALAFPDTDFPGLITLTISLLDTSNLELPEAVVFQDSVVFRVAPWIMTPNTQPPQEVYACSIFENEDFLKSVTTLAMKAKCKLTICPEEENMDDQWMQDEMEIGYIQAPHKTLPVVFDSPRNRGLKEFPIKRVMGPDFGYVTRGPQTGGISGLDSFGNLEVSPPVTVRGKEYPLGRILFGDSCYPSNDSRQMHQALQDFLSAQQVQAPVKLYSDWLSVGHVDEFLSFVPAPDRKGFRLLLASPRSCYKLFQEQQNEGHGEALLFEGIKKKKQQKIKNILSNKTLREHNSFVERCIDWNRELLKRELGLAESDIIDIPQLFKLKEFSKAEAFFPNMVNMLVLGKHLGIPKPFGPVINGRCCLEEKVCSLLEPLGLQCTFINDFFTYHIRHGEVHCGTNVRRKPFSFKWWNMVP

As for `C[C@H]1NC(=O)[C@@H]2C[C@H]2CCCCCn2c(-c3nc4cc(C(=O)N[C@H]5CNCC[C@@H]5F)cc(C(F)(F)F)c4n3C)cc3ccc1nc32` [Example 562, ~{N}-[(3~{S},4~{S})-4-fluoro-3-piperidyl]-1-methyl-2-[(2~{R},5~{R},7~ {R})-2-methyl-4-oxo-3,13,19-triazatetracyclo [11.5.2.0^{5,7}.0^{16,20}]icosa-1(19),14,16(20), 17-tetraen-14-yl]-7-(trifluoromethyl) benzimidazole-5-carboxamide], the IC50 (in general, the concentration at which inhibition is half-maximal) came out at 466 nM.

With `COc1cc(C(=O)N2CC[C@@H](OC)[C@@H](N)C2)cc2nc(-c3cc4ccc5nc4n3CCCCCc3nccc(F)c3C(=O)N[C@@H]5C)n(C)c12` [Example 656, (2˜{R})-17-[5-[(3˜{S},4˜{R})-3-amino-4-methoxy-piperidine-1-carbonyl]-7-methoxy-1-methyl-benzimidazol-2-yl]-6-fluoro-2-methyl-3,9,16,22-tetrazatetracyclo[14.5.2.0^{5,10}.0^{19,23}]tricosa-1(22),5,7,9,17,19(23),20-heptaen-4-one], the IC50 was 124 nM.

With `CO[C@@H]1CCN(C(=O)c2cc(Cl)c3c(c2)nc(-c2cc4ccc5nc4n2CCCCCc2nccnc2C(=O)N[C@@H]5C)n3C)C[C@@H]1N` [Example 504, (2~{R})-17-[5-[(3~ {S},4~{R})-3-amino-4-methoxy-piperidine-1-carbonyl]-7-chloro-1-methyl-benzimidazol-2-yl]-2-methyl-3,6,9,16,22-pentazatetracyclo [14.5.2.0^{5,10}.0^{19, 23}]tricosa-1(22),5(10), 6,8,17,19(23),20-heptaen-4-one], the IC50 was 172 nM.

`COc1cc(C(=O)N2[C@H]3CC[C@@H]2[C@H](N)C3)cc2nc(-c3cc4ccc5nc4n3CCCCCCCC(=O)NC5C3CC3)n(C)c12` (stereo partly shown) [Example 259, 17-[5-[(1˜{R},2˜{R},4˜{S})-2-amino-7-azabicyclo[2.2.1]heptane-7-carbonyl]-7-methoxy-1-methyl-benzimidazol-2-yl]-11-cyclopropyl-1,10,19-triazatricyclo[10.5.2.0^{15,18}]nonadeca-12(19),13,15(18),16-tetraen-9-one]: the IC50 came to 37 nM.

As to `COc1cc(C(=O)N2C[C@H]3CC[C@@H]2[C@@H]3N)cc2nc(-c3cc4ccc5cc4n3CCCCCCC(C)(C)C(=O)N[C@@H]5C)n(C)c12` [Example 749, (11~{R})-17-[5-[(1~{R},4~ {R},7~{R})-7-amino-2-azabicyclo[2.2.1]heptane-2-carbonyl]-7-methoxy-1-methyl-benzimidazol-2-yl]-8,8,11-trimethyl-1,10-diazatricyclo[10.5.2.0^{15,18}] nonadeca-12(19), 13,15(18),16-tetraen-9-one], the IC50 is 17 nM.

Regarding `C[C@H]1NC(=O)[C@H]2C[C@@H]2CC(F)(F)CCCn2c(-c3nc4cc(C(=O)N5C[C@H](N)[C@@H]6CC[C@H]5C6)cc(F)c4n3C3CC3)cc3ccc1nc32` [Example 880, (2~{R},5~{S},7~{R})-14-[5-[(1~{S},4~{R},5~{R})-4-amino-2-azabicyclo[3.2.1]octane-2-carbonyl]-1-cyclopropyl-7-fluoro-benzimidazol-2-yl]-9,9-difluoro-2-methyl-3,13,19-triazatetracyclo [11.5.2.0^{5,7}.0^{16,20}] icosa-1(19),14,16(20), 17-tetraen-4-one], the IC50 was determined as 39 nM.

Take `COc1cc(C(=O)N2CC[C@@H](CO)[C@@H](N)C2)cc2nc(-c3cc4ccc5nc4n3CCCCCCC(C)(C)C(=O)N[C@@H]5C)n(C)c12` [Example 533, (11~{R})-17-[5-[(3~ {R},4~{R})-3-amino-4-(hydroxymethyl)piperidine-1-carbonyl]-7-methoxy-1-methyl-benzimidazol-2-yl]-8,8,11-trimethyl-1,10,19-triazatricyclo [10.5.2.0^{15,18}]nonadeca-12(19),13,15(18),16-tetraen-9-one]: the concentration for half-maximal inhibition (IC50) was determined as 398 nM.

As to `COc1cc(C(=O)N2CC[C@@H](OC(F)(F)F)[C@@H](N)C2)cc2nc(-c3cc4ccc5nc4n3CCCCC[C@@H]3C[C@H]3C(=O)N[C@@H]5C)n(C)c12` [Example 582, (2~{R},5~{R},7~{R})-14-[5-[(3~{S},4~{R})-3-amino-4-(trifluoromethoxy)piperidine-1-carbonyl]-7-methoxy-1-methyl-benzimidazol-2-yl]-2-methyl-3,13,19-triazatetracyclo[11.5.2.0^ {5,7}.0^{16,20}]icosa-1(19), 14,16(20),17-tetraen-4-one], the concentration for half-maximal inhibition (IC50) was 271 nM.

With `COc1cc(C(=O)N2CC[C@@H](OC)[C@@H](N)C2)cc2nc(-c3cc4ccc5nc4n3CCCCCC[C@](C)(C(F)(F)F)C(=O)N[C@@H]5C)n(C)c12` [Example 720, (8~{S},11~{R})-17-[5-[(3~ {S},4~{R})-3-amino-4-methoxy-piperidine-1-carbonyl]-7-methoxy-1-methyl-benzimidazol-2-yl]-8,11-dimethyl-8-(trifluoromethyl)-1,10,19-triazatricyclo[10.5.2.0^ {15,18}]nonadeca-12(19),13,15(18),16-tetraen-9-one], the 50% inhibitory concentration (IC50) was found to be 65 nM.

With `COc1cc(C(=O)N2C[C@H](N)[C@@H]3CC[C@H]2C3)cc2nc(-c3cc4ccc5nc4n3CCCCCC[C@](c3ccccn3)(C(F)F)C(=O)N[C@@H]5C)n(C)c12` [Example 889, (8~{R},11~{R})-17-[5-[(1~{S},4~{R},5~{R})-4-amino-2-azabicyclo[3.2.1]octane-2-carbonyl]-7-methoxy-1-methyl-benzimidazol-2-yl]-8-(difluoromethyl)-11-methyl-8-(2-pyridyl)-1,10,19-triazatricyclo [10.5.2.0^{15,18}]nonadeca-12(19),13,15(18),16-tetraen-9-one], the IC50 is 54 nM.

As for `COc1cc(C(=O)N[C@H]2CNCC[C@@H]2F)cc2nc(-c3cc4ccc5nc4n3CCCCCCC(F)(F)C(=O)N[C@@H]5C)n(C)c12` [Example 375, 2-[(11~{R})-8,8-difluoro-11-methyl-9-oxo-1,10,19-triazatricyclo[10.5.2.0^{15,18}]nonadeca-12(19),13,15(18),16-tetraen-17-yl]-~ {N}-[(3~{S},4~{S})-4-fluoro-3-piperidyl]-7-methoxy-1-methyl-benzimidazole-5-carboxamide], the IC50 was determined as 109 nM.

Regarding `COc1cc(C(=O)N2CC[C@@H](OC)[C@@H](N)C2)cc2nc(-c3cc4ccc5nc4n3CCCCCCC(C)(C)C(=O)NC5C3CC3)n(C)c12` (stereo partly shown) [Example 778, 17-[5-[(3~{S),4~{R})-3-amino-4-methoxy-piperidine-1-carbonyl]-7-methoxy-1-methyl-benzimidazol-2-yl]-11-cyclopropyl-8,8-dimethyl-1,10,19-triazatricyclo [10.5.2.0^{15,18}]nonadeca-12,14,16,18-tetraen-9-one], the IC50 turned out to be 338 nM.

Regarding `COc1cc(C(=O)N2C[C@H](N)[C@@H]3CC[C@H]2C3)cc2nc(-c3cc4ccc5nc4n3CCCCCOC(C)(C)C(=O)N[C@@H]5C)n(C)c12` [Example 909, (11~{R})-17-[5-[(1~{S},4~{R), 5~{R})-4-amino-2-azabicyclo [3.2.1]octane-2-carbonyl]-7-methoxy-1-methyl-benzimidazol-2-yl]-8,8,11-trimethyl-7-oxa-1,10,19-triazatricyclo[10.5.2.0^{15,18}] nonadeca-12(19), 13,15(18),16-tetraen-9-one], the IC50 amounted to 52 nM.
